{"source": "PubChem BioAssay AID2060492", "about": "(Molecular Pharmacology Branch, DTP, NCI, 2025);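 also: spheroids exposed to compounds for seven days before readout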", "system": "695427-040-R-J1-PDC complex spheroids, viability percent T/C", "assay": "Anticancer human tumor 695427-040-R-J1-PDC patient-derived colon adenocarcinoma cell line growth inhibition [GQUAD]", "conditions": "for IC50: curve of first compound; for viability, T/C: stronger effect = lower value", "procedure,_shortened": "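Multi-cell-type spheroids of tumor cells with HUVEC and mesenchymal stem cells, treated with drug combinations. Concentrations descend in half-log steps from near clinical Cmax, or from 10 microM where Cmax is unknown; viability read-out.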", "data": [{"smiles": "CCCS(=O)(=O)Nc1ccc(F)c(C(=O)c2c[nH]c3ncc(-c4ccc(Cl)cc4)cc23)c1F", "note": "+ Cc1[nH]c2ccc(F)cc2c1-c1nc2c3cccnc3c3ncccc3c2[nH]1", "values": [{"measurement": "IC50", "setting": "second compound 0.0316 µM", "result": "> 10", "unit": "µM"}, {"measurement": "IC50", "setting": "second compound 0.1 µM", "result": "> 10", "unit": "µM"}, {"measurement": "IC50", "setting": "second compound 0.316 µM", "result": "> 10", "unit": "µM"}, {"measurement": "IC50", "setting": "second compound 1 µM", "result": 9.22, "unit": "µM"}, {"measurement": "IC50", "setting": "second compound 3.16 µM", "result": 5.02, "unit": "µM"}, {"measurement": "IC50", "setting": "second compound 10 µM", "result": 2.51, "unit": "µM"}, {"measurement": "viability, T/C", "setting": "second compound 0.0316 µM, first compound 0.0316 µM", "result": 97.4, "unit": "%"}, {"measurement": "viability, T/C", "setting": "second compound 0.0316 µM, first compound 0.1 µM", "result": 89.3, "unit": "%"}, {"measurement": "viability, T/C", "setting": "second compound 0.0316 µM, first compound 0.316 µM", "result": 92.5, "unit": "%"}, {"measurement": "viability, T/C", "setting": "second compound 0.0316 µM, first compound 1 µM", "result": 84.3, "unit": "%"}, {"measurement": "viability, T/C", "setting": "second compound 0.0316 µM, first compound 3.16 µM", "result": 70.9, "unit": "%"}, {"measurement": "viability, T/C", "setting": "second compound 0.0316 µM, first compound 10 µM", "result": 60.1, "unit": "%"}, {"measurement": "viability, T/C", "setting": "second compound 0.1 µM, first compound 0.0316 µM", "result": 109, "unit": "%"}, {"measurement": "viability, T/C", "setting": "second compound 0.1 µM, first compound 0.1 µM", "result": 99.2, "unit": "%"}, {"measurement": "viability, T/C", "setting": "second compound 0.1 µM, first compound 0.316 µM", "result": 86, "unit": "%"}, {"measurement": "viability, T/C", "setting": "second compound 0.1 µM, first compound 1 µM", "result": 77.6, "unit": "%"}, {"measurement": "viability, T/C", "setting": "second compound 0.1 µM, first compound 3.16 µM", "result": 70.9, "unit": "%"}, {"measurement": "viability, T/C", "setting": "second compound 0.1 µM, first compound 10 µM", "result": 53.8, "unit": "%"}, {"measurement": "viability, T/C", "setting": "second compound 0.316 µM, first compound 0.0316 µM", "result": 107, "unit": "%"}, {"measurement": "viability, T/C", "setting": "second compound 0.316 µM, first compound 0.1 µM", "result": 93.9, "unit": "%"}, {"measurement": "viability, T/C", "setting": "second compound 0.316 µM, first compound 0.316 µM", "result": 77.7, "unit": "%"}, {"measurement": "viability, T/C", "setting": "second compound 0.316 µM, first compound 1 µM", "result": 73.4, "unit": "%"}, {"measurement": "viability, T/C", "setting": "second compound 0.316 µM, first compound 3.16 µM", "result": 66.6, "unit": "%"}, {"measurement": "viability, T/C", "setting": "second compound 0.316 µM, first compound 10 µM", "result": 54.7, "unit": "%"}, {"measurement": "viability, T/C", "setting": "second compound 1 µM, first compound 0.0316 µM", "result": 93.9, "unit": "%"}, {"measurement": "viability, T/C", "setting": "second compound 1 µM, first compound 0.1 µM", "result": 89.8, "unit": "%"}, {"measurement": "viability, T/C", "setting": "second compound 1 µM, first compound 0.316 µM", "result": 85.3, "unit": "%"}, {"measurement": "viability, T/C", "setting": "second compound 1 µM, first compound 1 µM", "result": 76.2, "unit": "%"}, {"measurement": "viability, T/C", "setting": "second compound 1 µM, first compound 3.16 µM", "result": 63.9, "unit": "%"}, {"measurement": "viability, T/C", "setting": "second compound 1 µM, first compound 10 µM", "result": 49, "unit": "%"}, {"measurement": "viability, T/C", "setting": "second compound 3.16 µM, first compound 0.0316 µM", "result": 84, "unit": "%"}, {"measurement": "viability, T/C", "setting": "second compound 3.16 µM, first compound 0.1 µM", "result": 86.2, "unit": "%"}, {"measurement": "viability, T/C", "setting": "second compound 3.16 µM, first compound 0.316 µM", "result": 72, "unit": "%"}, {"measurement": "viability, T/C", "setting": "second compound 3.16 µM, first compound 1 µM", "result": 71.2, "unit": "%"}, {"measurement": "viability, T/C", "setting": "second compound 3.16 µM, first compound 3.16 µM", "result": 56.5, "unit": "%"}, {"measurement": "viability, T/C", "setting": "second compound 3.16 µM, first compound 10 µM", "result": 39.8, "unit": "%"}, {"measurement": "viability, T/C", "setting": "second compound 10 µM, first compound 0.0316 µM", "result": 69.2, "unit": "%"}, {"measurement": "viability, T/C", "setting": "second compound 10 µM, first compound 0.1 µM", "result": 72.6, "unit": "%"}, {"measurement": "viability, T/C", "setting": "second compound 10 µM, first compound 0.316 µM", "result": 63.3, "unit": "%"}, {"measurement": "viability, T/C", "setting": "second compound 10 µM, first compound 1 µM", "result": 66, "unit": "%"}, {"measurement": "viability, T/C", "setting": "second compound 10 µM, first compound 3.16 µM", "result": 46, "unit": "%"}, {"measurement": "viability, T/C", "setting": "second compound 10 µM, first compound 10 µM", "result": 37.1, "unit": "%"}]}]}
